# Source: patent US20220096664A1, “STABILIZED FORMULATIONS CONTAINING IODINATED CONTRAST AGENTS AND CYCLODEXTRINS” (Verrow Pharmaceuticals, Inc., priority 2012, published 2022)
# Tests used:
# [1] = Photostability: iodide formed after visible light irradiation; assay type: physicochemical; details: for Iodide formed: 50 mM agent, 10 mM TRIS, pH 7.4, VIS 72 h
# Protocol: (§1) Aqueous solutions comprising iodinated contrast agents were prepared and evaluated in a photolysis chamber as described in the ICH guidance document, Q1B Photostability Testing of New Drug Substances and Products, available from the US Food and Drug Administration, incorporated herein by reference. The solutions were placed in 1 cm×1 cm (3 mL) quartz cuvettes having 2 clear sides and 2 sides etched. Lids were placed on the cuvettes and sealed with a wrap of Parafilm® around the joint. The cuvettes were placed in a photolysis chamber, upright on a flat surface beneath and centered between two horizontal 24 inch fluorescent lamps, (GE, black light F20T12, 20 watt for ultraviolet, or Philips F20T12/CW, 20 watt for visible) placed 6 cm apart. The cuvettes were positioned such that their two clear sides were facing the two lamps.
# (§2) Cuvettes were spaced ˜2 cm from each other, and no closer than 15 cm from the ends of the lamps. This positioning allowed reproducible light exposure to all cuvettes.
# (§3) The lamps were switched on and the solutions irradiated for 18 to 24 hours for the ultraviolet (UV) lamps or 72 to 90 hours for the visible (VIS) light lamps. At the end of the selected irradiation time, the cuvettes were removed from the photolysis chamber and mixed by inversion 2-times. The caps were then removed and 40 microliter aliquots taken and diluted with 1 mL of an aqueous solution containing ˜0.9 mg/mL sodium thiosulfate. The thiosulfate solution converted any I2, IO3^−, and I3^− present in the solution tor such that total iodine species could be determined in one assay.
# (§4) The diluted solutions were assayed by high pressure liquid chromatography (HPLC) using a 4.6×250 mm, C-18, 5 micron particle size, reversed phase column with detection at 280 nm for the contrast agent and 230 nm for the thiosulfate and the iodide ion (r). A mobile phase of 30:70 methanol:aqueous buffer (50 mM KH2PO4+7 mL/L 40% tetrabutyl ammonium hydroxide) at 0.75 mL/min was used for elution. Injection volume was 20 microliters. External standards were prepared containing each contrast agent, potassium iodide, and sodium thiosulfate solution and analyzed along with the irradiated samples. The results were reported as weight percentage iodide formed (mg iodide/mg contrast agent times 100).
# (§5) The absorbance readings at 400 nm due to light exposure were plotted against time of exposure and the resulting correlation used to determine the UV and VIS light exposure. A change in absorbance reading of 0.45 was assumed equivalent to 200 watt hours/square meter for the UV light and a change of 0.51 was assumed equivalent to 1.2 million lux hours for the VIS light. The UV lamps provided 6.62 watts/square meter and the VIS lamps provided 7180 lux.
# Aqueous solutions were prepared containing 473 mM iohexol (180 mg 1/mL), 10 mM tromethamine HCl buffer (TRIS), with and without various SCDs. The pH of the solutions was adjusted to 7.4 with 0.1N hydrochloric acid. Aliquots of the solutions were irradiated with ultraviolet (UV) light for 18 hours (119 watt hours/m^2) and other aliquots irradiated with visible (VIS) light for 90 hours (0.65 million lux hours). The solutions were then processed, analyzed and reported as in Example 2, with the exception that the iohexol peak was measured at 300 nm for both samples and standards. Results of the study are presented in the table below along with the SCD used. The SCDs included derivatives prepared from alpha, beta, and gamma CD to evaluate the effect of CD cavity size. Various substituents, including one derivative containing more than one type of substituent, and degrees of substitution (DS) were also evaluated.
# Aqueous solutions were prepared containing 50 mM iodinated contrast agent, 10 mM tromethamine HCl buffer (TRIS), with and without sulfobutylether beta-cyclodextrin with an average degree of substitution-7 (SBE7-β-CD), or 2-hydroxypropyl beta-cyclodextrin with an average degree of substitution of ˜6.3 (HP6.3-β-CD) or ˜4.3 (HP4.3-β-CD). […]
# [2] = Photostability: iodide formed after UV light irradiation; assay type: physicochemical; details: 18 h, 50 mM
# Protocol: as §1, §2, §3, §4, §5
# Aqueous solutions were prepared containing 50 mM contrast agent by diluting commercially available solutions with water. Tromethamine HCl buffer (TRIS), was added to solutions as necessary to increase the TRIS content to that of the commercial product before dilution.
# SCD was added to the solutions at various mole ratios and the pH of the solutions adjusted to 7.4 with 0.1N hydrochloric acid or 0.1N sodium hydroxide. The solutions were irradiated with UV light for 18 hours (119 watt hours/m^2) then processed, analyzed and reported as in Example 2. The SCDs evaluated were sulfobutyl ether beta-cyclodextrin with an average degree of substitution of 7 (SBE-704CD), and two 2-hydroxypropyl beta-cyclodextrin derivatives having 6.3 (HP-6.3n/CD) and 4.3 (HP-4.3-βCD) average degrees of substitution.
# Aqueous solutions were prepared containing 50 mM contrast agent by diluting commercially available solutions with distilled water. Tromethamine HCl buffer (TRIS), was added to some solutions to increase the buffer content.
# The solutions were divided and SBE-7-CD added to one aliquot at a contrast agent:SCD mole ratio of 1:1. The pH of the solutions was adjusted to 5, 6, 7, 7.4 or 8 with 0.1N hydrochloric acid or sodium hydroxide. […]
Iodide formed ([1]; agent:SBE7-β-CD 1:0.1),Iodide formed ([1]; no SCD (1:0)),% Change in iodide degradants formed in the presence of the SCD ([2]; pH 5),% Change in iodide degradants formed in the presence of the SCD ([2]; pH 7.4),% Change in iodide degradants formed in the presence of the SCD ([2]; pH 8),"percent change in iodide degradants formed in the presence of the SCD ([1]; 72 h, 50 mM, pH 7.4)",Structure (SMILES)
0.269 wt %,0.311 wt %,–,–,–,–,"COCC(=O)Nc1c(I)c(C(=O)NCC(O)CO)c(I)c(C(=O)N(C)CC(O)CO)c1I (stereo not shown) [Iopromide, iopromide]"
0.301 wt %,0.304 wt %,−43.6%,−58.5%,−47%,(−1%),"O=C(NCC(O)CO)c1c(I)c(C(=O)NCC(O)CO)c(I)c(N(CCO)C(=O)CO)c1I (stereo not shown) [Ioversol, ioversol]"

Structure (SMILES),Iodide formed ([1]; agent:SBE7-β-CD 1:0.1),Iodide formed ([1]; no SCD (1:0)),% Change in iodide degradants formed in the presence of the SCD ([2]; pH 5),% Change in iodide degradants formed in the presence of the SCD ([2]; pH 7.4),% Change in iodide degradants formed in the presence of the SCD ([2]; pH 8),"percent change in iodide degradants formed in the presence of the SCD ([1]; 72 h, 50 mM, pH 7.4)"
"CC(=O)N(CC(O)CN(C(C)=O)c1c(I)c(C(=O)NCC(O)CO)c(I)c(C(=O)NCC(O)CO)c1I)c1c(I)c(C(=O)NCC(O)CO)c(I)c(C(=O)NCC(O)CO)c1I (stereo not shown) [Iodixanol, iodixanol]",0.142 wt %,0.153 wt %,–,–,–,–
